This is an account of results in US11993610B2, “BCL-2 inhibitors” (Newave Pharmaceutical Inc., priority 2017, dated 2024).

Molecules are shown by their SMILES. Read-outs that look alike come from different tables or passages of the source.

Data set [1] has as its system BCL-2-dependent acute lymphoblastic leukemia RS4; 11 xenograft model. Briefly: In vivo RS4; 11 xenograft study. The arrangement: species or system CB.17 SCID mice. The settings on record: for BW Nadir / Tumor volume: po. An excerpt:
The CB.17 SCID mice were obtained at age 6-8 weeks from vendors and acclimated for a minimum 7-day period. The cancer cells were then implanted into the […] mice. Depending on the specific tumor type, tumors were typically detectable about two weeks following implantation. When tumor sizes reached ˜100-200 mm^3, the animals with appreciable tumor size and shape were randomly assigned into groups of 8 mice each, including one vehicle control group and treatment groups. Dosing varies depending on the purpose and length of each study, which typically proceeded for about 3-4 weeks. Tumor sizes and body weight were typically measured three times per week. In addition to the determination of tumor size changes, the last tumor measurement was used to generate the tumor size change ratio (T/C value), a standard metric developed by the National Cancer Institute for xenograft tumor evaluation. In most cases, % T/C values were calculated using the following formula: % T/C=100×ΔT/ΔC if ΔT>0. When tumor regression occurred (ΔT<0), however, the following formula was used: % T/T0=100×ΔT/T0.

The subject of data set [2] is RS4; 11. The data set can be described thus: In vitro anti-proliferation assay (ATPlite) in BCL-2-dependent ALL cell line RS4; 11. The data set is classed as cell-based. The procedure:
Cell antiproliferation was assayed by PerkinElmer ATPlite™ Luminescence Assay System. Briefly, the various test cancer cell lines were plated at a density of about 1×10^4 cells per well in Costar 96-well plates, and were incubated with different concentrations of compounds for about 72 hours in medium supplemented with 5% FBS or 10% normal human serum (NHS). One lyophilized substrate solution vial was then reconstituted by adding 5 mL of substrate buffer solution, and was agitated gently until the solution is homogeneous. About 50 μL of mammalian cell lysis solution was added to 100 μL of cell suspension per well of a microplate, and the plate was shaken for about five minutes in an orbital shaker at ˜700 rpm. This procedure was used to lyse the cells and to stabilize the ATP. Next, 50 μL substrate solution was added to the wells and microplate was shaken for five minutes in an orbital shaker at ˜700 rpm. Finally, the luminescence was measured by a PerkinElmer TopCount® Microplate Scintillation Counter. Such assays, carried out with a range of doses of test compounds, allowed the determination of the cellular anti-antiproliferative IC50 of the compounds of the present invention.
Background: ATP-based viability assays read luminescence as a measure of living cells.

In data set [3] the test system is circulating platelets. The settings on record: clinical trial; cited from earlier work.
Data set [4] has as its system H345 xenograft model. The settings on record: 100 mg/kg/day; cited from earlier work.
Data set [5] relates to xenograft models of small-cell lung cancer and acute lymphoblastic leukemia. The settings on record: oral administration, alone; cited from earlier work.
For data set [6] the following is noted: cited from earlier work.
Data set [7] is described as follows: Mice PK study. The data set is classed as in vivo. The settings on record: po, 10 mg/kg, CD-1 mouse; for AUC / half-life / bioavailability: plasma; for half-life: read-out: t½ (converted); for bioavailability: read-out: Bioavailabilty. The protocol:
The pharmacokinetics of compounds were evaluated in CD-1 mouse via Intravenous and Oral Administration. The IV dose was administered as a slow bolus in the Jugular vein, and oral doses were administered by gavage. The formulation for IV dosing is 5% DMSO in 20% HPBCD in water, and the PO formulation is 2.5% DMSO, 10% EtOH, 20% Cremphor EL, 67.5% D5W. The PK time point for the IV arm was 5, 15, 30 min, 1, 2, 4, 6, 8, 12, 24 hours post dose, and for PO arm was 15, 30 min, 1, 2, 4, 6, 8, 12, 24 hours post dose. Approximately 0.03 mL blood was collected at each time point. Blood of each sample was transferred into plastic micro centrifuge tubes containing EDTA-K2 and plasma was collected within 15 min by centrifugation at 4000 g for 5 minutes in a 4′C centrifuge. Plasma samples were stored in polypropylene tubes. The samples were stored in a freezer at −75±15° C. prior to analysis. Concentrations of compounds in the plasma samples were analyzed using a LC-MS/MS method. WinNonlin (Phoenix™, version 6.1) or other similar software was used for pharmacokinetic calculations. The following pharmacokinetic parameters were calculated, whenever possible from the plasma concentration versus time data: IV administration: C0, CL, Vd, T1/2, AUCinf, AUClast, MRT, Number of Points for Regression; PO administration: Cmax, Tmax, T1/2, AUCinf, AUClast, F %, Number of Points for Regression. The pharmacokinetic data was described using descriptive statistics such as mean, standard deviation. Additional pharmacokinetic or statistical analysis was performed at the discretion of the contributing scientist, and was documented in the data summary.

Setting [8] is: Homo sapiens, RS4-11, 72 h, read-out: IC50, RS4, 11 5% FBS, about 72 hours, first study.
[9] abbreviates: Homo sapiens, RS4-11, 72 h, read-out: IC50, RS4, 11 5% FBS, about 72 hours, another study.

For orientation: IC50 means the point on the concentration scale where inhibition reaches its midpoint. Turning to `CC1(C)CCC(CN2CCN(c3ccc(C(=O)NS(=O)(=O)c4ccc(NCC5CCOCC5)c([N+](=O)[O-])c4)c(Oc4cnc5[nH]ccc5c4)c3)CC2)=C(c2ccc(Cl)cc2)C1` [ABT-199, reference compound], the “BW Nadir” value in data set [1] (50 mg/kg, qd × 7) is on record as −3.60%. Further, the Tumor volume amounted to 0 mm^3 in data set [1] (50 mg/kg, qd × 7) and 17.4 mm^3 in data set [1] (50 mg/kg, qd × 21). Besides, the IC50 in data set [2] (setting [8]) came out at 5.5 nM.

As a reminder, the TGI is the reduction of tumour growth relative to the control group. On to `CC1(C)CCC(c2ccc(Cl)cc2)=C(CN2CCN(c3ccc(C(=O)NS(=O)(=O)c4ccc(N[C@H](CCN5CCOCC5)CSc5ccccc5)c(S(=O)(=O)C(F)(F)F)c4)cc3)CC2)C1` [ABT-263], for which the “number of circulating platelets” value in data set [3] is “rapid, concentration-dependent decrease in the number of circulating platelets”. In data set [4], the TGI is listed as 80% and the “treated tumors indicating at least a 50% reduction in tumor volume” value is recorded as 20%. Further, in data set [5], the tumor regressions result is on record as “complete tumor regressions”.

On to `CN(C)CC[C@H](CSc1ccccc1)Nc1ccc(S(=O)(=O)NC(=O)c2ccc(N3CCN(Cc4ccccc4-c4ccc(Cl)cc4)CC3)cc2)cc1[N+](=O)[O-]` [ABT-737], for which the aqueous solubility result in data set [6] is “low”.

One may read the t½ as the time needed for the level to fall by half in the phase considered. Low readings indicate fast loss, high ones slow loss. As to `CC1(C)CCC(CN2CCN(c3ccc(C(=O)NS(=O)(=O)c4ccc(NCC5CCOCC5)c([N+](=O)[O-])c4)c(N4CCOc5nc6[nH]ccc6cc54)c3)CC2)=C(c2ccc(Cl)cc2)C1` [Example 2 (NW-4-8), 4-(4-[[2-(4-chlorophenyl)-4,4-dimethylcyclohex-1-en-1-yl]methyl]piperazin-1-yl)-N-([3-nitro-4-[(oxan-4-ylmethyl)amino]benzene]sulfonyl)-2-[13-oxa-2,4,10-triazatricyclo[7.4.0.0^[3,7]]trideca-1,3(7),5,8-tetraen-10-yl]benzamide], in data set [7], the “AUC(h * ng/mL)” value is 10,365 h * ng/mL, the Bioavailabilty is recorded as 68% and the “t½” value was 2.7 h. Besides, in data set [2] (read-out: IC50, RS4, 11 5% FBS, about 72 hours, first study), the IC50 amounted to 4.8 nM.

Turning to `CC1(C)CCC(CN2CCN(c3ccc(C(=O)NS(=O)(=O)c4ccc(NCC5(F)CCOCC5)c([N+](=O)[O-])c4)c(N4CCOc5nc6[nH]ccc6cc54)c3)CC2)=C(c2ccc(Cl)cc2)C1` [Example 3, 4-(4-((4′-chloro-5,5-dimethyl-3,4,5,6-tetrahydro-[1,1′-biphenyl]-2-yl)methyl)piperazin-1-yl)-2-(2,3-dihydropyrrolo[3′,2′:5,6]pyrido[2,3-b][1,4]oxazin-1(6H)-yl)-N-((4-(((4-fluorotetrahydro-2H-pyran-4-yl)methyl)amino)-3-nitrophenyl)sulfonyl)benzamide], the “BW Nadir” value in data set [1] (25 mg/kg, qd × 7) was −3.60%; in data set [1] (50 mg/kg, qd × 7) it was −2.90%; in data set [1] (100 mg/kg, qd × 7) it was −2.10%. The Tumor volume in data set [1] (25 mg/kg, qd × 7) is listed as 368 mm^3; in data set [1] (50 mg/kg, qd × 7) it was 26 mm^3; in data set [1] (100 mg/kg, qd × 7) it was 0 mm^3. Moreover, in data set [1] (100 mg/kg, day 18), the tumor regression entry was “complete regression of the tumor”. In addition, the “effect on tumor growth” value in data set [1] (7 doses (qd × 7), 25-100 mg/kg po) is recorded as “dose-dependent reduction of tumor growth”. Further, the values for the IC50 in data set [2] (setting [9]) and in data set [2] (setting [8]) were 1.4 nM and 2.6 nM, respectively.

Usually AUC stands for the area under the concentration-time curve, a measure of exposure. Take `C[C@@H]1CN(c2cc(N3CCN(CC4=C(c5ccc(Cl)cc5)CC(C)(C)CC4)CC3)ccc2C(=O)NS(=O)(=O)c2ccc(NCC3(F)CCOCC3)c([N+](=O)[O-])c2)c2cc3cc[nH]c3nc2O1` [Example 6 (R), (R)-4-(4-((4′-chloro-5,5-dimethyl-3,4,5,6-tetrahydro-[1,1′-biphenyl]-2-yl)methyl)piperazin-1-yl)-N-((4-(((4-fluorotetrahydro-2H-pyran-4-yl)methyl)amino)-3-nitrophenyl)sulfonyl)-2-(3-methyl-2,3-dihydropyrrolo[3′,2′:5,6]pyrido[2,3-b][1,4]oxazin-1(6H)-yl)benzamide]: in data set [7], the AUC was found to be 16100 ng·h/mL and the half-life is 3.2 h. Further, in data set [2] (setting [9]), the IC50 was 1.3 nM.

As to `C[C@H]1CN(c2cc(N3CCN(CC4=C(c5ccc(Cl)cc5)CC(C)(C)CC4)CC3)ccc2C(=O)NS(=O)(=O)c2ccc(NCC3(F)CCOCC3)c([N+](=O)[O-])c2)c2cc3cc[nH]c3nc2O1` [Example 6 (S), (S)-4-(4-((4′-chloro-5,5-dimethyl-3,4,5,6-tetrahydro-[1,1′-biphenyl]-2-yl)methyl)piperazin-1-yl)-N-((4-(((4-fluorotetrahydro-2H-pyran-4-yl)methyl)amino)-3-nitrophenyl)sulfonyl)-2-(3-methyl-2,3-dihydropyrrolo[3′,2′:5,6]pyrido[2,3-b][1,4]oxazin-1(6H)-yl)benzamide], in data set [7], the AUC was found to be 12100 ng·h/mL and the bioavailability is 74%. The IC50 in data set [2] (setting [9]) stood at 3.2 nM.

Consider `CC1(C)CCC(CN2CCN(c3ccc(C(=O)NS(=O)(=O)c4ccc(NCC5(F)CCOCC5)c([N+](=O)[O-])c4)c(N4CC(C)(C)Oc5nc6[nH]ccc6cc54)c3)CC2)=C(c2ccc(Cl)cc2)C1` [Example 7, 4-(4-((4′-chloro-5,5-dimethyl-3,4,5,6-tetrahydro-[1,1′-biphenyl]-2-yl)methyl)piperazin-1-yl)-2-(3,3-dimethyl-2,3-dihydropyrrolo[3′,2′:5,6]pyrido[2,3-b][1,4]oxazin-1(6H)-yl)-N-((4-(((4-fluorotetrahydro-2H-pyran-4-yl)methyl)amino)-3-nitrophenyl)sulfonyl)benzamide], for which, in data set [7], the AUC was 11000 ng·h/mL, the bioavailability was 90% and the half-life is 3.2 h. In addition, in data set [2] (setting [9]), the IC50 stood at 5.6 nM.

Regarding `C[C@H]1CN(c2cc(N3CCN(CC4=C(c5ccc(Cl)cc5)CC(C)(C)CC4)CC3)ccc2C(=O)NS(=O)(=O)c2ccc(NCC3CCOCC3)c([N+](=O)[O-])c2)c2cc3cc[nH]c3nc2O1` [Example 9, (S)-4-(4-((4′-chloro-5,5-dimethyl-3,4,5,6-tetrahydro-[1,1′-biphenyl]-2-yl)methyl)piperazin-1-yl)-2-(3-methyl-2,3-dihydropyrrolo[3′,2′:5,6]pyrido[2,3-b][1,4]oxazin-1(6H)-yl)-N-((3-nitro-4-(((tetrahydro-2H-pyran-4-yl)methyl)amino)phenyl)sulfonyl)benzamide], in data set [7], the AUC was determined as 19900 ng·h/mL and the half-life was 4.1 h.

Consider `C[C@@H]1CN(c2cc(N3CCN(CC4=C(c5ccc(Cl)cc5)CC(C)(C)CC4)CC3)ccc2C(=O)NS(=O)(=O)c2ccc(NCC3CCOCC3)c([N+](=O)[O-])c2)c2cc3cc[nH]c3nc2O1` [Example 10, (R)-4-(4-((4′-chloro-5,5-dimethyl-3,4,5,6-tetrahydro-[1,1′-biphenyl]-2-yl)methyl)piperazin-1-yl)-2-(3-methyl-2,3-dihydropyrrolo[3′,2′:5,6]pyrido[2,3-b][1,4]oxazin-1(6H)-yl)-N-((3-nitro-4-(((tetrahydro-2H-pyran-4-yl)methyl)amino)phenyl)sulfonyl)benzamide], for which, in data set [7], the AUC turned out to be 35000 ng·h/mL, the bioavailability turned out to be 78% and the half-life is 4.1 h.
